Reference: paper PMC10364322, “Evaluation of chronic drug-induced electrophysiological and cytotoxic effects using human-induced pluripotent stem cell-derived cardiomyocytes (hiPSC-CMs)” (Frontiers in Pharmacology, 2023)
Where two headings read alike, the source gives them in different places.

How the values were obtained:
[1] = system: hiPSC-CMs (iCell-Cardiomyocytes^2); assay: MEA impedance (cytotoxicity readout) in hiPSC-CMs
[2] = free therapeutic Cmax in humans; ref FDA-approved drug packages, PharmaPendium; cited from earlier work
[3] = system: hiPSC-CMs (iCell-Cardiomyocytes^2)
How it was run: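 Spontaneous field potentials and impedance recorded by MEA at 37°C, 5% CO2 in hiPSC-CM monolayers (50 K/well, fibronectin-coated), 5-min baseline before compound; final DMSO 0.1%. Values are percent change from baseline, mean ± SD, compared with DMSO by Wilcoxon-Mann Whitney, interpreted against DMSO tolerance intervals.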

In the case of `COc1cc2c(Nc3ccc(Br)cc3F)ncnc2cc1OCC1CCN(C)CC1` [Vandetanib], the “Imp (impedance), % change from baseline” value ([1]; 0.1 µM, 2h) is reported as -3±2%, the “Imp (impedance), % change from baseline” value ([1]; 0.1 µM, 24h) is reported as -9±2% and the “Imp (impedance), % change from baseline” value ([1]; 0.1 µM, 48h) is reported as -7±2%. The “Imp (impedance), % change from baseline” value ([1]; 0.1 µM, 72h) was -9±3%, the “Imp (impedance), % change from baseline” value ([1]; 0.1 µM, 96h) was -6±3% and the “Imp (impedance), % change from baseline” value ([1]; 0.3 µM, 2h) was -2±1%. For the same compound, the “Imp (impedance), % change from baseline” value ([1]; 0.3 µM, 24h) was -9±4%, the “Imp (impedance), % change from baseline” value ([1]; 0.3 µM, 48h) was -3±3% and the “Imp (impedance), % change from baseline” value ([1]; 0.3 µM, 72h) was -5±4%. The “Imp (impedance), % change from baseline” value ([1]; 0.3 µM, 96h) was -6±5%, the “Imp (impedance), % change from baseline” value ([1]; 1 µM, 2h) was -3±2% and the “Imp (impedance), % change from baseline” value ([1]; 1 µM, 24h) was -11±3%. The “Imp (impedance), % change from baseline” value ([1]; 1 µM, 48h) was -13±4%, the “Imp (impedance), % change from baseline” value ([1]; 1 µM, 72h) was -20±4 % and the “Imp (impedance), % change from baseline” value ([1]; 1 µM, 96h) was -20±5%. The “Imp (impedance), % change from baseline” value ([1]; 3 µM, 72h) was -44±7 %, the “Imp (impedance), % change from baseline” value ([1]; 3 µM, 96h) was -53±5 % and the “Imp (impedance), % change from baseline” value ([1]; 3 µM, 2h) was 2±4%. For the same compound, the “Imp (impedance), % change from baseline” value ([1]; 3 µM, 24h) was -16±3%, the “Imp (impedance), % change from baseline” value ([1]; 3 µM, 48h) was -30±5 % and the “Free Cmax” value [2] was 400 nM. The “BR (beating rate), % change from baseline” value (“BR (beating rate), % change” for short) ([3]; 0.1 µM, 2h) was 0±4%, the “Beating below threshold, number of observations/total well numbers” value ([3]; 0.1 µM, 2h) was 0/5 and the “Cessation of beating, number of observations/total well numbers” value ([3]; 0.1 µM, 2h) was 0/5. The “EAD, number of observations/total well numbers” value ([3]; 0.1 µM, 2h) was 0/5, the “FPDc (field-potential duration corrected by beat-rate), % change from baseline” value (from here on “FPDc … % change from baseline”) ([3]; 0.1 µM, 2h) was 15.3±2.3 % and the “Flat T-wave-like, number of observations/total well numbers” value ([3]; 0.1 µM, 2h) was 0/5. For the same compound, the “BR (beating rate), % change” value ([3]; 0.1 µM, 24h) was -9±5%, the “Beating below threshold, number of observations/total well numbers” value ([3]; 0.1 µM, 24h) was 0/5 and the “Cessation of beating, number of observations/total well numbers” value ([3]; 0.1 µM, 24h) was 0/5. For the same compound, the “EAD, number of observations/total well numbers” value ([3]; 0.1 µM, 24h) was 0/5, the “FPDc … % change from baseline” value ([3]; 0.1 µM, 24h) was 44.1±5.9 % and the “Flat T-wave-like, number of observations/total well numbers” value ([3]; 0.1 µM, 24h) was 0/5. For the same compound, the “BR (beating rate), % change” value ([3]; 0.1 µM, 48h) was -14±2 %, the “Beating below threshold, number of observations/total well numbers” value ([3]; 0.1 µM, 48h) was 0/5 and the “Cessation of beating, number of observations/total well numbers” value ([3]; 0.1 µM, 48h) was 0/5. For the same compound, the “EAD, number of observations/total well numbers” value ([3]; 0.1 µM, 48h) was 0/5, the “FPDc … % change from baseline” value ([3]; 0.1 µM, 48h) was 40.3±1.1 % and the “Flat T-wave-like, number of observations/total well numbers” value ([3]; 0.1 µM, 48h) was 0/5. For the same compound, the “BR (beating rate), % change” value ([3]; 0.1 µM, 72h) was -17±2 %, the “Beating below threshold, number of observations/total well numbers” value ([3]; 0.1 µM, 72h) was 0/5 and the “Cessation of beating, number of observations/total well numbers” value ([3]; 0.1 µM, 72h) was 0/5. The “EAD, number of observations/total well numbers” value ([3]; 0.1 µM, 72h) was 0/5, the “FPDc … % change from baseline” value ([3]; 0.1 µM, 72h) was 52.6±4.9 % and the “Flat T-wave-like, number of observations/total well numbers” value ([3]; 0.1 µM, 72h) was 0/5. For the same compound, the “BR (beating rate), % change” value ([3]; 0.1 µM, 96h) was -19±3%, the “Beating below threshold, number of observations/total well numbers” value ([3]; 0.1 µM, 96h) was 0/5 and the “Cessation of beating, number of observations/total well numbers” value ([3]; 0.1 µM, 96h) was 0/5. The “EAD, number of observations/total well numbers” value ([3]; 0.1 µM, 96h) was 0/5, the “FPDc … % change from baseline” value ([3]; 0.1 µM, 96h) was 57.6±5.7 % and the “Flat T-wave-like, number of observations/total well numbers” value ([3]; 0.1 µM, 96h) was 0/5. The “BR (beating rate), % change” value ([3]; 0.3 µM, 2h) was -5±4%, the “Beating below threshold, number of observations/total well numbers” value ([3]; 0.3 µM, 2h) was 0/5 and the “Cessation of beating, number of observations/total well numbers” value ([3]; 0.3 µM, 2h) was 0/5. The “EAD, number of observations/total well numbers” value ([3]; 0.3 µM, 2h) was 0/5, the “FPDc … % change from baseline” value ([3]; 0.3 µM, 2h) was 28.5±9.1 % and the “Flat T-wave-like, number of observations/total well numbers” value ([3]; 0.3 µM, 2h) was 0/5. The “BR (beating rate), % change” value ([3]; 0.3 µM, 24h) was -29±5 %, the “Beating below threshold, number of observations/total well numbers” value ([3]; 0.3 µM, 24h) was 0/5 and the “Cessation of beating, number of observations/total well numbers” value ([3]; 0.3 µM, 24h) was 0/5. For the same compound, the “EAD, number of observations/total well numbers” value ([3]; 0.3 µM, 24h) was 1/5, the “FPDc … % change from baseline” value ([3]; 0.3 µM, 24h) was 112±14.9 % and the “Flat T-wave-like, number of observations/total well numbers” value ([3]; 0.3 µM, 24h) was 1/5. The “BR (beating rate), % change” value ([3]; 0.3 µM, 48h) was -31±2 %, the “Beating below threshold, number of observations/total well numbers” value ([3]; 0.3 µM, 48h) was 0/5 and the “Cessation of beating, number of observations/total well numbers” value ([3]; 0.3 µM, 48h) was 0/5. For the same compound, the “EAD, number of observations/total well numbers” value ([3]; 0.3 µM, 48h) was 0/5, the “FPDc … % change from baseline” value ([3]; 0.3 µM, 48h) was 99.2±21.9 % and the “Flat T-wave-like, number of observations/total well numbers” value ([3]; 0.3 µM, 48h) was 1/5. The “BR (beating rate), % change” value ([3]; 0.3 µM, 72h) was -40±3 %, the “Beating below threshold, number of observations/total well numbers” value ([3]; 0.3 µM, 72h) was 0/5 and the “Cessation of beating, number of observations/total well numbers” value ([3]; 0.3 µM, 72h) was 0/5. For the same compound, the “EAD, number of observations/total well numbers” value ([3]; 0.3 µM, 72h) was 0/5, the “FPDc … % change from baseline” value ([3]; 0.3 µM, 72h) was 126.3±24.4 % and the “Flat T-wave-like, number of observations/total well numbers” value ([3]; 0.3 µM, 72h) was 1/5. For the same compound, the “BR (beating rate), % change” value ([3]; 0.3 µM, 96h) was -43±6 %, the “Beating below threshold, number of observations/total well numbers” value ([3]; 0.3 µM, 96h) was 0/5 and the “Cessation of beating, number of observations/total well numbers” value ([3]; 0.3 µM, 96h) was 0/5. For the same compound, the “EAD, number of observations/total well numbers” value ([3]; 0.3 µM, 96h) was 0/5, the “FPDc … % change from baseline” value ([3]; 0.3 µM, 96h) was 144.1±35.5 % and the “Flat T-wave-like, number of observations/total well numbers” value ([3]; 0.3 µM, 96h) was 1/5. The “BR (beating rate), % change” value ([3]; 1 µM, 2h) was -28±5 %, the “Beating below threshold, number of observations/total well numbers” value ([3]; 1 µM, 2h) was 0/5 and the “Cessation of beating, number of observations/total well numbers” value ([3]; 1 µM, 2h) was 0/5. The “EAD, number of observations/total well numbers” value ([3]; 1 µM, 2h) was 0/5, the “FPDc … % change from baseline” value ([3]; 1 µM, 2h) was 110.2±0 % and the “Flat T-wave-like, number of observations/total well numbers” value ([3]; 1 µM, 2h) was 4/5. For the same compound, the “BR (beating rate), % change” value ([3]; 1 µM, 24h) was -59±5 %, the “Beating below threshold, number of observations/total well numbers” value ([3]; 1 µM, 24h) was 0/5 and the “Cessation of beating, number of observations/total well numbers” value ([3]; 1 µM, 24h) was 0/5. The “EAD, number of observations/total well numbers” value ([3]; 1 µM, 24h) was 1/5, the “Flat T-wave-like, number of observations/total well numbers” value ([3]; 1 µM, 24h) was 5/5 and the “BR (beating rate), % change” value ([3]; 1 µM, 48h) was -65±2 %. The “Beating below threshold, number of observations/total well numbers” value ([3]; 1 µM, 48h) was 0/5, the “Cessation of beating, number of observations/total well numbers” value ([3]; 1 µM, 48h) was 0/5 and the “EAD, number of observations/total well numbers” value ([3]; 1 µM, 48h) was 2/5. For the same compound, the “Flat T-wave-like, number of observations/total well numbers” value ([3]; 1 µM, 48h) was 5/5, the “BR (beating rate), % change” value ([3]; 1 µM, 72h) was -68±2 % and the “Beating below threshold, number of observations/total well numbers” value ([3]; 1 µM, 72h) was 1/5. For the same compound, the “Cessation of beating, number of observations/total well numbers” value ([3]; 1 µM, 72h) was 1/5, the “EAD, number of observations/total well numbers” value ([3]; 1 µM, 72h) was 0/5 and the “Flat T-wave-like, number of observations/total well numbers” value ([3]; 1 µM, 72h) was 3/5. The “BR (beating rate), % change” value ([3]; 1 µM, 96h) was -68±0 %, the “Beating below threshold, number of observations/total well numbers” value ([3]; 1 µM, 96h) was 0/5 and the “Cessation of beating, number of observations/total well numbers” value ([3]; 1 µM, 96h) was 4/5. For the same compound, the “EAD, number of observations/total well numbers” value ([3]; 1 µM, 96h) was 0/5, the “Flat T-wave-like, number of observations/total well numbers” value ([3]; 1 µM, 96h) was 1/5 and the “time point from which cessation of beating occurred in all wells” value ([3]; 3 µM) was 24 h. For the same compound, the “Beating below threshold, number of observations/total well numbers” value ([3]; 3 µM, 72h) was 0/5, the “Cessation of beating, number of observations/total well numbers” value ([3]; 3 µM, 72h) was 5/5 and the “EAD, number of observations/total well numbers” value ([3]; 3 µM, 72h) was 0/5. The “Flat T-wave-like, number of observations/total well numbers” value ([3]; 3 µM, 72h) was 0/5, the “Beating below threshold, number of observations/total well numbers” value ([3]; 3 µM, 96h) was 0/5 and the “Cessation of beating, number of observations/total well numbers” value ([3]; 3 µM, 96h) was 5/5. The “EAD, number of observations/total well numbers” value ([3]; 3 µM, 96h) was 0/5, the “Flat T-wave-like, number of observations/total well numbers” value ([3]; 3 µM, 96h) was 0/5 and the “BR (beating rate), % change” value ([3]; 3 µM, 2h) was -58±4 %. The “Beating below threshold, number of observations/total well numbers” value ([3]; 3 µM, 2h) was 0/5, the “Cessation of beating, number of observations/total well numbers” value ([3]; 3 µM, 2h) was 0/5 and the “EAD, number of observations/total well numbers” value ([3]; 3 µM, 2h) was 0/5. For the same compound, the EAD-like events ([3]; 3 µM, 2h) was “EAD-like events occurred”, the “Flat T-wave-like, number of observations/total well numbers” value ([3]; 3 µM, 2h) was 5/5 and the “BR (beating rate), % change” value ([3]; 3 µM, 24h) was -71±1 %. The “Beating below threshold, number of observations/total well numbers” value ([3]; 3 µM, 24h) was 0/5, the “Cessation of beating, number of observations/total well numbers” value ([3]; 3 µM, 24h) was 3/5 and the “EAD, number of observations/total well numbers” value ([3]; 3 µM, 24h) was 0/5. The “Flat T-wave-like, number of observations/total well numbers” value ([3]; 3 µM, 24h) was 2/5, the “Beating below threshold, number of observations/total well numbers” value ([3]; 3 µM, 48h) was 1/5 and the “Cessation of beating, number of observations/total well numbers” value ([3]; 3 µM, 48h) was 4/5. For the same compound, the “EAD, number of observations/total well numbers” value ([3]; 3 µM, 48h) was 0/5 and the “Flat T-wave-like, number of observations/total well numbers” value ([3]; 3 µM, 48h) was 0/5.
